The results in this text go back to PubChem BioAssay (NCI).

Test systems include HOP-62 NSCLC; HT29 colon; NCI-H226 lung; NCI-H23 lung; NCI-H460 lung; NCI-H522 lung; OVCAR-5 ovarian; SNB-75 CNS; SR leukemia; MDA-N.
Holding throughout (assay): NCI anticancer screen, dose series, 48 h

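96-well plates; 48 h exposure; 5 concentrations. Endpoints by linear interpolation between flanking doses. Not reached: highest tested concentration assigned. GI50 = concentration required for 50% inhibition of growth. Definition used: TGI = concentration required for complete inhibition of growth.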 Where a SMILES comes first, the peptide text is derived from it. The star is where a group is joined. Boc = CC(C)(C)OC(=O)*

For `CC(=O)OCC1OC(n2cc([N+](=O)[O-])c(=O)[nH]c2=O)C(OC(C)=O)C(OC(C)=O)C1OC(C)=O` (configuration not stated), the TGI in the assay on HOP-62 NSCLC, in the assay with HT29 colon, with NCI-H226 lung, in the assay with NCI-H23 lung, with NCI-H460 lung and in the assay with NCI-H522 lung was above 100 µM throughout. Further, the TGI with OVCAR-5 ovarian, in the assay with SNB-75 CNS and in the assay with SR leukemia was above 100 µM in each case.
In the case of `COc1ccc2cc3c4cc5c(cc4cc[n+]3cc2c1OC)OCO5`, the TGI with HOP-62 NSCLC is 64.3 µM; in the assay with HT29 colon it was above 100 µM; in the assay on MDA-N it was 28.5 µM; with NCI-H226 lung, above 100 µM; in the assay with NCI-H23 lung, 65.1 µM; in the assay with NCI-H460 lung it was above 100 µM. The TGI was 21.5 µM with NCI-H522 lung, above 100 µM with OVCAR-5 ovarian and 67 µM in the assay with SNB-75 CNS.
As for `C=CCOC(=O)CC[N+]1=CCC(c2ccccc2)(c2ccccc2)O1`, the TGI with HOP-62 NSCLC, in the assay on HT29 colon, in the assay with MDA-N, in the assay with NCI-H226 lung, in the assay on NCI-H23 lung and in the assay with NCI-H460 lung was above 100 µM each time. Further, the TGI in the assay on NCI-H522 lung and in the assay on OVCAR-5 ovarian was above 100 µM throughout.
For the compound `O=C(CNc1ccccc1Cl)Nn1c(-c2ccccc2)nc2ccccc2c1=O`, the TGI in the assay with HOP-62 NSCLC was 72.9 µM; in the assay with HT29 colon it was above 10 µM; with NCI-H226 lung, 81.1 µM; in the assay with NCI-H23 lung, 40.8 µM; in the assay with NCI-H460 lung it was above 100 µM; with NCI-H522 lung, above 10 µM. In addition, the TGI in the assay on OVCAR-5 ovarian was above 10 µM; with SNB-75 CNS, 63 µM; in the assay with SR leukemia, 97.6 µM.
With `CC(=O)N(C(C)=O)C1=C2c3ccccc3N(S(=O)(=O)c3ccccc3)C2n2c(=O)n(-c3ccccc3)c(=O)n2C1` (configuration not stated), the TGI with HOP-62 NSCLC is above 100 µM; in the assay on HT29 colon it was above 100 µM; in the assay with NCI-H23 lung, 95.9 µM; with NCI-H460 lung, 42.3 µM; in the assay with NCI-H522 lung it was 39.5 µM; with OVCAR-5 ovarian, above 100 µM. The figures for the TGI in the assay on SNB-75 CNS and with SR leukemia were 51.3 µM and 39.5 µM, respectively.
For the compound `CC(C)(C)OC(=O)NCC(=O)NCC(=O)NCC(=O)NCC(=O)O` (Boc-GGGG-OH), the TGI in the assay with HOP-62 NSCLC, in the assay with HT29 colon, with NCI-H23 lung, with NCI-H460 lung, in the assay with NCI-H522 lung and in the assay with OVCAR-5 ovarian was above 100 µM throughout. In the assay with SR leukemia, this compound returned a TGI above 100 µM.
For `COc1cc2c(cc1-c1c(C)noc1C)cc(C)c(=O)n2Cc1ccccn1`, the GI50 was 0.489 µM with HOP-62 NSCLC; 0.469 µM in the assay on HT29 colon; 1.59 µM in the assay on NCI-H226 lung; 3.4 µM with NCI-H23 lung; 6 µM in the assay with NCI-H460 lung; 0.542 µM with NCI-H522 lung. In addition, the GI50 in the assay on OVCAR-5 ovarian is 2.78 µM; in the assay with SNB-75 CNS, 0.0306 µM; in the assay on SR leukemia, 0.709 µM. For the same compound, the TGI with HOP-62 NSCLC is above 100 µM; in the assay with HT29 colon it was above 100 µM; in the assay on NCI-H226 lung, above 100 µM; with NCI-H23 lung it was above 100 µM; in the assay with NCI-H460 lung, above 100 µM; with NCI-H522 lung, 10.9 µM. For the same compound, the TGI is above 100 µM with OVCAR-5 ovarian, 0.456 µM in the assay with SNB-75 CNS and above 100 µM in the assay on SR leukemia.
In the case of `CN(C)C(=S)S`, the TGI with HT29 colon was above 100 µM; in the assay on NCI-H226 lung, above 100 µM; in the assay on NCI-H23 lung, above 93.3 µM; with NCI-H460 lung, above 100 µM; in the assay on NCI-H522 lung, above 20.4 µM; in the assay on OVCAR-5 ovarian, above 100 µM. In the assay on SNB-75 CNS, this compound registered a TGI above 100 µM.
On to `O=C(c1cc2ccccc2cc1O)N1CCCCC1`, for which the TGI in the assay on HOP-62 NSCLC was above 100 µM; with HT29 colon, above 100 µM; in the assay with NCI-H226 lung, 85.9 µM; with NCI-H460 lung, above 100 µM; in the assay on SNB-75 CNS it was above 100 µM; in the assay with SR leukemia it was 55.9 µM.
Consider `O=C1c2cc3c(cc2CC1Br)CCC3` (configuration not stated), for which the TGI in the assay on HOP-62 NSCLC is 30.8 µM; in the assay on HT29 colon, 5.78 µM; in the assay with MDA-N it was 3.48 µM; in the assay on NCI-H226 lung it was 11.4 µM; in the assay on NCI-H23 lung, 9.27 µM; in the assay on NCI-H460 lung it was 56.2 µM. Moreover, the TGI in the assay on NCI-H522 lung came out at 3 µM; with OVCAR-5 ovarian it was 14.9 µM; in the assay with SNB-75 CNS it was 7.44 µM.
Turning to `C=CCNC(=S)/N=C/c1c(O)c2ccccc2oc1=O`, the TGI in the assay on HT29 colon, with NCI-H226 lung, in the assay on NCI-H23 lung, in the assay with NCI-H460 lung, in the assay with NCI-H522 lung and in the assay with OVCAR-5 ovarian was above 100 µM in each case. In the assay on SNB-75 CNS, this compound yielded a TGI above 100 µM.
As to `Cc1cn(C2OC(C)(CO)C(O)C2O)c(=O)[nH]c1=O` (configuration not stated), the TGI in the assay with HOP-62 NSCLC, with HT29 colon, in the assay on NCI-H23 lung, with NCI-H460 lung, in the assay on NCI-H522 lung and in the assay with OVCAR-5 ovarian was above 100 µM in each case. Further, the TGI in the assay with SNB-75 CNS and with SR leukemia was above 100 µM each time.
For `Brc1cccc(Nc2nc(-c3cccs3)nc3ccc(Br)cc23)c1`, the TGI in the assay with HOP-62 NSCLC is above 100 µM; in the assay with HT29 colon, 53 µM; in the assay on NCI-H226 lung it was above 100 µM; in the assay on NCI-H23 lung it was above 100 µM; with NCI-H460 lung it was above 100 µM; in the assay on NCI-H522 lung, 54.9 µM. In addition, the TGI in the assay with OVCAR-5 ovarian is 98.2 µM; in the assay on SNB-75 CNS it was above 100 µM; in the assay on SR leukemia it was above 100 µM.
Consider `COc1cc(NS(C)(=O)=O)ccc1N1Cc2cnc3ccc4[nH]c(C)cc1c4c23`, for which the TGI with HOP-62 NSCLC is 71.9 µM; in the assay on HT29 colon it was above 100 µM; in the assay with MDA-N, 47.7 µM; with NCI-H226 lung it was above 100 µM; with NCI-H23 lung, above 100 µM; in the assay on NCI-H460 lung, above 100 µM. Besides, the results for the TGI with NCI-H522 lung, in the assay with OVCAR-5 ovarian and with SNB-75 CNS were 80.7 µM, above 100 µM and 46.5 µM, respectively.
As to `N=S(c1ccccc1)c1ccccc1[N+](=O)[O-]` (configuration not stated), the TGI came to 52.6 µM in the assay on HOP-62 NSCLC; 38.7 µM in the assay with HT29 colon; 25.4 µM with NCI-H226 lung; 35.2 µM in the assay on NCI-H23 lung; 51 µM in the assay with NCI-H460 lung; 11.7 µM in the assay with NCI-H522 lung. For the same compound, the TGI in the assay with OVCAR-5 ovarian came out at 34.7 µM; in the assay with SNB-75 CNS it was 95.1 µM; in the assay with SR leukemia it was 50.1 µM.
